In publication PMC3852005, “Crystal Structures of the Human G3BP1 NTF2-Like Domain Visualize FxFG Nup Repeat Specificity” (PLoS ONE, 2013):
One block for each molecule: values may come before it. Where no end group is shown, it is not given here.

How the values were obtained:
[1] = target: T1, human G3BP1 NTF2-like domain (G3BP1 1–139) (Homo sapiens, UniProt Q13283); assay: ITC, Nup peptide binding to G3BP1 NTF2-like domain (1–139); settings: 0.1 M NaCl and 0.1 M HEPES, pH 8, 25°C, repeated three times; for heat changes on titration (ITC): titration of peptide into G3BP1 1–139, ITC200, aliquots of 2 µL peptide (5.2 mM)
T1 construct: His6 (thrombin-cleavable) (N, cleaved yes); made in house; host or cells: Escherichia coli BL21(DE3)
T1 sequence (Q13283 1-139): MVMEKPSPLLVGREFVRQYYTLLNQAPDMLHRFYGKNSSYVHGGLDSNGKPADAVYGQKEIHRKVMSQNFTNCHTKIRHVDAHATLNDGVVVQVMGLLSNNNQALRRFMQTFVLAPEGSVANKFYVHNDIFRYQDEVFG
Method: (§1) The three synthetic peptides, GQSPGFGQGGSV (referred to as FG), DSGGLFGSK (GLFG) and DSGFSFGSK (FxFG), were obtained as more than 98% pure lyophilized chloride salts from Caslo Laboratory ApS, Denmark.
(§2) ITC measurements for the wild type NTF2-like domain were performed with an ITC200 titration calorimeter (MicroCal). Data analysis was done using the Origin software. Protein samples were dialyzed against 0.1 M NaCl and 0.1 M HEPES, pH 8, and passed through 0.22 µm centrifugal filter units (Millipore) before the experiments. Peptides were solubilized in the dialysis buffer and the pH adjusted before filtration. In each experiment, aliquots of 2 µL peptide (5.2 mM) were injected into the sample cell every 180 seconds at 25°C. Background measurements were performed with buffer injected into the protein solution and peptides injected into the buffer solution. The concentrations of the peptides were determined by amino acid analysis (Department of Systems Biology, DTU, Denmark). Experiments were repeated three times and the results given as mean ± standard deviation.

[2] = target: T2, G3BP1 1–139 Phe15Ala mutant (Homo sapiens, UniProt Q13283, F15A); assay: ITC, FxFG peptide binding to G3BP1 1–139 Phe15Ala mutant; settings: ITC (VP-ITC), 0.1 M NaCl and 0.1 M HEPES, pH 8, 20°C, aliquots of 15 µL peptide (4.1 mM) every 360 seconds, single experiment
T2 construct: The expression vector for the G3BP1 1–139 Phe15Ala mutant was produced by GenScript Inc. (USA); His6 (thrombin-cleavable) (N, cleaved yes); made in house; host or cells: Escherichia coli BL21(DE3)
T2 sequence (Q13283 1-139 F15A): as the sequence (Q13283 1-139) above, with F15A counted along it
Method: as §1
Data for the Phe15Ala G3BP1 mutant were collected in a single experiment on a VP-ITC (MicroCal) instrument using buffer conditions as for the wildtype. Aliquots of 15 µL peptide (4.1 mM) were injected into the protein sample every 360 seconds at 20°C.

[3] = target: T3, G3BP2a NTF2-like domain (G3BP2a 1–139) (Homo sapiens, UniProt Q9UN86); assay: ITC, Nup peptide binding to G3BP2a NTF2-like domain (1–139); settings: 0.1 M NaCl and 0.1 M HEPES, pH 8, 25°C, repeated three times; for heat changes on titration (ITC): titration of peptide into G3BP2a 1–139 (data not shown), ITC200, aliquots of 2 µL peptide (5.2 mM)
T3 construct: His6 (thrombin-cleavable) (N, cleaved yes); made in house; host or cells: Escherichia coli BL21(DE3)
T3 sequence (Q9UN86 1-139): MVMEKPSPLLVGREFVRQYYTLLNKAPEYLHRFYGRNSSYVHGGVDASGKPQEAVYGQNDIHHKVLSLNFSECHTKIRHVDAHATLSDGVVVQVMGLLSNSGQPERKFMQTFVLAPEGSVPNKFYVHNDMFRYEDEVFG
Method: as §1, §2

FxFG Nup repeat peptide = target: T4, FxFG Nup repeat peptide (also: chloride salt); assay: ITC
T4 chain: DSGFSFGSK

- Kd ([1]; ITC (ITC200), G3BP1 1–139, aliquots of 2 µL peptide (5.2 mM) every 180 seconds, one-binding-site per chain model, mean ± standard deviation): 115 ± 3 µM
- Kd [2]: 670 µM
- Kd ([3]; ITC (ITC200), G3BP2a NTF2-like domain, aliquots of 2 µL peptide (5.2 mM) every 180 seconds, mean ± standard deviation, data not shown): 114 ± 2 µM
Molecule: DSGFSFGSK [FxFG, DSGFSFGSK]

Molecule: DSGGLFGSK [synthetic nucleoporin GLFG repeat peptide, more than 98% pure, from Caslo Laboratory]
- heat changes on titration (ITC) [1]: did not result in significant heat changes
- heat changes on titration (ITC) [3]: did not result in significant heat changes

Molecule: GQSPGFGQGGSV [synthetic nucleoporin FG repeat peptide, more than 98% pure, from Caslo Laboratory]
- heat changes on titration (ITC) [1]: did not result in significant heat changes
- heat changes on titration (ITC) [3]: did not result in significant heat changes

- Kd (FxFG Nup repeat peptide): 114 µM
B1: G3BP2a NTF2-like domain 1-139 (protein)
chain: T3 sequence (Q9UN86 1-139)
